Source: the supplement of paper PMC10307832

What was measured:
Assay in all cases: relative viability (nuclei count vs DMSO), 5 days (fraction); higher = more cells survive
[1] = compound: O[C@H]1CC[C@H](Nc2ncc3nc(Nc4c(F)cc(F)cc4F)n([C@H]4CCOC4)c3n2)CC1 [Tanzisertib] + Cc1cc(Nc2cc(N3CCN(C)CC3)nc(Sc3ccc(NC(=O)C4CC4)cc3)n2)n[nH]1 [Tozasertib] (partner 0.1 µM)
How it was run: (§1)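 Relative viability was taken as the ratio of nuclei in treated wells to nuclei in vehicle wells. Lung cancer cell lines in 1536-well plates received compounds by pin tool one day after seeding, either one drug alone or a fixed anchor-drug dose plus five library-drug doses (not always all listed) in √10 steps. Nuclei were counted on 4× images after 5 days of treatment, and values are medians of duplicate plates.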

[2] = compound: C1CNCCC1C2=CC(=NN2)C3=CC=NC=C3 + Nc1nc2[nH]cc(CCc3ccc(C(=O)N[C@@H](CCC(=O)O)C(=O)O)cc3)c2c(=O)[nH]1 [Pemetrexed] (partner 0.2 µM)
How it was run: as §1

[3] = compound: O[C@H]1CC[C@H](Nc2ncc3nc(Nc4c(F)cc(F)cc4F)n([C@H]4CCOC4)c3n2)CC1 [Tanzisertib] + O=C(c1cc(Cc2n[nH]c(=O)c3ccccc23)ccc1F)N1CCN(C(=O)C2CC2)CC1 [Olaparib] (partner 8 µM)
How it was run: as §1

[4] = compound: C1CNCCC1C2=CC(=NN2)C3=CC=NC=C3 + O=C(CCCCCCC(=O)Nc1ccccc1)NO [Vorinostat] (partner 1 µM)
How it was run: as §1

SW 1573 showed a relative viability ([1]; first compound 0.08 µM) of 0.174, a relative viability ([1]; first compound 0.253 µM) of 0.185 and a relative viability ([1]; first compound 0.8 µM) of 0.151. For the same cell line, the relative viability ([1]; first compound 2.53 µM) was 0.204, the relative viability ([1]; first compound 8 µM) was 0.139 and the relative viability ([2]; first compound 0.8 µM) was 0.881. For the same cell line, the relative viability ([2]; first compound 2.53 µM) was 0.912, the relative viability ([2]; first compound 8 µM) was 0.992 and the relative viability ([3]; first compound 0.08 µM) was 0.453. It also gave a relative viability ([3]; first compound 0.253 µM) of 0.406, a relative viability ([3]; first compound 0.8 µM) of 0.475 and a relative viability ([3]; first compound 2.53 µM) of 0.455. It also gave a relative viability ([3]; first compound 8 µM) of 0.443, a relative viability ([4]; first compound 0.8 µM) of 0.642 and a relative viability ([4]; first compound 2.53 µM) of 1.01. For the same cell line, the relative viability ([4]; first compound 8 µM) was 0.967.
In the case of NCI-H1975, the relative viability ([1]; first compound 0.08 µM) is reported as 0.845, the relative viability ([1]; first compound 0.253 µM) is reported as 0.762 and the relative viability ([1]; first compound 0.8 µM) is reported as 0.838. It also gave a relative viability ([1]; first compound 2.53 µM) of 0.668, a relative viability ([1]; first compound 8 µM) of 0.458 and a relative viability ([2]; first compound 0.08 µM) of 0.313. The relative viability ([2]; first compound 0.8 µM) was 0.307, the relative viability ([2]; first compound 2.53 µM) was 0.303 and the relative viability ([2]; first compound 8 µM) was 0.29. It also gave a relative viability ([3]; first compound 0.08 µM) of 0.898, a relative viability ([3]; first compound 0.253 µM) of 0.836 and a relative viability ([3]; first compound 0.8 µM) of 0.807. It also gave a relative viability ([3]; first compound 2.53 µM) of 0.818, a relative viability ([3]; first compound 8 µM) of 0.752 and a relative viability ([4]; first compound 0.08 µM) of 0.74. The relative viability ([4]; first compound 0.8 µM) was 0.758, the relative viability ([4]; first compound 2.53 µM) was 0.702 and the relative viability ([4]; first compound 8 µM) was 0.685.
With Calu-6 the relative viability ([3]; first compound 0.08 µM) was 0.583, the relative viability ([3]; first compound 0.253 µM) was 0.566 and the relative viability ([3]; first compound 0.8 µM) was 0.563. The relative viability ([3]; first compound 2.53 µM) was 0.597 and the relative viability ([3]; first compound 8 µM) was 0.509.
With NCI-H1648 the relative viability ([1]; first compound 0.08 µM) was 0.418, the relative viability ([1]; first compound 0.253 µM) was 0.564 and the relative viability ([1]; first compound 0.8 µM) was 0.467. The relative viability ([1]; first compound 2.53 µM) was 0.398, the relative viability ([1]; first compound 8 µM) was 0.597 and the relative viability ([2]; first compound 0.08 µM) was 0.671. The relative viability ([2]; first compound 0.8 µM) was 0.57, the relative viability ([2]; first compound 8 µM) was 0.828 and the relative viability ([3]; first compound 0.08 µM) was 0.662. The relative viability ([3]; first compound 0.253 µM) was 1.22, the relative viability ([3]; first compound 0.8 µM) was 0.797 and the relative viability ([3]; first compound 2.53 µM) was 0.817. It also gave a relative viability ([3]; first compound 8 µM) of 0.765, a relative viability ([4]; first compound 0.08 µM) of 0.381 and a relative viability ([4]; first compound 0.8 µM) of 0.518. The relative viability ([4]; first compound 8 µM) was 0.488.
NCI-H1623 was tested, and the relative viability ([1]; first compound 0.08 µM) was 0.482, the relative viability ([1]; first compound 0.253 µM) was 0.414 and the relative viability ([1]; first compound 0.8 µM) was 0.482. For the same cell line, the relative viability ([1]; first compound 2.53 µM) was 0.47 and the relative viability ([1]; first compound 8 µM) was 0.405.
NCI-H3122 was tested, and the relative viability ([1]; first compound 0.08 µM) was 0.465, the relative viability ([1]; first compound 0.253 µM) was 0.393 and the relative viability ([1]; first compound 0.8 µM) was 0.497. For the same cell line, the relative viability ([1]; first compound 2.53 µM) was 0.399, the relative viability ([1]; first compound 8 µM) was 0.377 and the relative viability ([2]; first compound 0.08 µM) was 0.193. For the same cell line, the relative viability ([2]; first compound 0.8 µM) was 0.212, the relative viability ([2]; first compound 2.53 µM) was 0.197 and the relative viability ([2]; first compound 8 µM) was 0.202. It also gave a relative viability ([3]; first compound 0.08 µM) of 0.708, a relative viability ([3]; first compound 0.253 µM) of 0.587 and a relative viability ([3]; first compound 0.8 µM) of 0.634. The relative viability ([3]; first compound 2.53 µM) was 0.583, the relative viability ([3]; first compound 8 µM) was 0.62 and the relative viability ([4]; first compound 0.08 µM) was 0.717. For the same cell line, the relative viability ([4]; first compound 0.8 µM) was 0.994, the relative viability ([4]; first compound 2.53 µM) was 1.05 and the relative viability ([4]; first compound 8 µM) was 1.12.
